Results reported in patent US11207312B2, “Metallo-beta-lactamase inhibitors and methods of use thereof” (priority 2017, dated 2021).

Tests used:
[1] = tested on: Escherichia coli expressing NDM-1 (CLB30016); assay type: cell-based; details: with imipenem 1 μg/ml; 95% inhibition of bacterial growth
Outline: (§1)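 Clinical MBL-producing strains grown overnight at 35° C, diluted 1:100 into CAMHB, then exposed to test compound with imipenem at 1 μg/ml for 22–24 h at 35° C. Absorbance read-out; MITC95 is the lowest compound concentration giving 95% growth inhibition with imipenem.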

[2] = tested on: Serratia marcescens expressing IMP-1 (CL5741); assay type: cell-based; details: with imipenem 1 μg/ml; 95% inhibition of bacterial growth
Outline: as §1

[3] = tested on: Klebsiella pneumoniae expressing VIM-1 (IHMA599644); assay type: cell-based; details: with imipenem 1 μg/ml; 95% inhibition of bacterial growth
Outline: as §1

[4] = biological target: VIM-1 (Pseudomonas aeruginosa (strain ATCC 15692 / DSM 22644 / CIP 104116 / JCM 14847 / LMG 12228 / 1C / PRS 101 / PAO1), UniProt A0A0F7KYQ8); assay: biochemical; details: CCF2-FA fluorescence assay, 2 hours at 25° C.; read-out: VIM1 IC50
Outline: (§2)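 In pH 7 phosphate buffer (100 mM) with 10 μM ZnSO4 and 0.005% Tween-20, CCF2-FA hydrolysis (1.25 μM) by 1 pM NDM-1, 2 pM IMP-1 or 30 pM VIM-1 was run 2 h at 25° C with inhibitor from 20 to 0.00063 μM. Ex 405/em 460 nm signal fitted to a 4-parameter curve for IC50.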

[5] = biological target: IMP-1 (Serratia marcescens, UniProt P52699); assay: biochemical; details: CCF2-FA fluorescence assay, 2 hours at 25° C.; read-out: IMP1 IC50
Sequence of IMP-1 (P52699 whole entry, looked up, species assumed): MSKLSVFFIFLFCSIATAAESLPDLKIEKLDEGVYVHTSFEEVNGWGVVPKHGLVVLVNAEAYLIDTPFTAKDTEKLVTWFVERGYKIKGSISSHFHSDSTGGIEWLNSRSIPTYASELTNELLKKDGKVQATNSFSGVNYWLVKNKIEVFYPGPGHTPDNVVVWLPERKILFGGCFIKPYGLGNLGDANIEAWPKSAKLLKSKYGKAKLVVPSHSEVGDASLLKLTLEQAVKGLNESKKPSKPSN
Outline: as §2

[6] = biological target: VIM-2 (Escherichia coli, UniProt Q5U7L7); assay: biochemical; details: CCF2-FA fluorescence assay; read-out: VIM2 IC50
[7] = tested on: P. aeruginosa MB9798 (efflux+, IMP-1 plasmid); details: for MB9798 MITC95 P. aeruginosa uM Efflux WT: efflux + (MB9798) strain, imipenem at 2 μg/mL, in the presence of a class A, C, D serine β-lactamase inhibitor closely related to relebactam; for Efflux ratio: fold difference between efflux+ (MB9798) and efflux− (MB9799) strains
Outline: (§3)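 Isogenic P. aeruginosa PAO1 strains (efflux+ and multiple-efflux-pump-disrupted) carrying plasmid IMP-1, with inducible AmpC, tested by broth microdilution. Imipenem and/or ceftazidime fixed, usually at CLSI breakpoint, plus fixed class A/C β-lactamase inhibitor; titrated MBL inhibitor concentration restoring susceptibility recorded and compared between strains as efflux fold difference.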

[8] = tested on: P. aeruginosa MB9799 (efflux-, IMP-1 plasmid); assay type: cell-based, Pseudomonas aeruginosa; details: efflux − (MB9799) strain; imipenem at 2 μg/mL; in the presence of a class A, C, D serine β-lactamase inhibitor closely related to relebactam
Outline: as §3

[9] = biological target: NDM-1 (Klebsiella pneumoniae, UniProt C7C422); assay: biochemical; assay type: biochemical; details: CCF2-FA fluorescence assay, 2 hours at 25° C.
Sequence of NDM-1 (C7C422 whole entry, looked up, species assumed): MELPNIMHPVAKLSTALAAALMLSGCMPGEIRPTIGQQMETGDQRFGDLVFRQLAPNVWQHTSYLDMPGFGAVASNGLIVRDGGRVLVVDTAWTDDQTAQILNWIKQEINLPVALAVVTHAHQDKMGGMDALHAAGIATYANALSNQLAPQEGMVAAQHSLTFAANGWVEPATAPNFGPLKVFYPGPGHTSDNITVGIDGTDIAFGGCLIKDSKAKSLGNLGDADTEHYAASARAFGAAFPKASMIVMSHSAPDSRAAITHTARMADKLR
Outline: as §2

| Structure (SMILES) | CLB30016 E. coli MITC95 NDM [1] [µM] | CL5741 S. marcescens MITC95 IMP [2] [µM] | IHMA599644 K. pneumoniae MITC95 VIM [3] [µM] | IC50 [4] [nM] | IC50 [5] [nM] | IC50 [6] [nM] | MB9798 MITC95 P. aeruginosa uM Efflux WT [7] [µM] | Efflux ratio [7] | MB9799 MITC95 P. aeruginosa uM Efflux Mutant [8] [µM] | IC50 [9] [nM] |
| --- | --- | --- | --- | --- | --- | --- | --- | --- | --- | --- |
| CC1CN(c2ccc(S(=O)(=O)NC[C@H](O)CN)c(S(N)(=O)=O)c2-c2nn[nH]n2)CCN1CCO.O=C(O)C(F)(F)F.O=C(O)C(F)(F)F (stereo partly drawn) [Example 176, N1-((R)-3-amino-2-hydroxypropyl)-4-(4-(2-hydroxyethyl)-3-methylpiperazin-1-yl)-3-(2H-tetrazol-5-yl)benzene-1,2-disulfonamide bis(2,2,2-trifluoroacetate) salt] | 0.39 | 0.39 | 1.56 | 2.76 | 5.1 | 11.7 | 3.13 | 2.00 | 1.56 | 2.51 |
| NCC1C2CCC1CN(c1ccc(S(=O)(=O)NC[C@H](O)CN)c(S(N)(=O)=O)c1-c1nn[nH]n1)C2 (stereo partly drawn) [Example 172, N1-((R)-3-amino-2-hydroxypropyl)-4-((1R,5S,8R)-8-(aminomethyl)-3-azabicyclo[3.2.1]octan-3-yl)-3-(2H-tetrazol-5-yl)benzene-1,2-disulfonamide] | 1.17 | 2.34 | 2.34 | 0.66 | 3.49 | 3.78 | 1.17 | 1.00 | 1.17 | 2.15 |
| NCCCC1CCN(c2ccc(S(=O)(=O)NC[C@H](O)CN)c(S(N)(=O)=O)c2-c2nn[nH]n2)CC1 [Example 193, (R)-N1-(3-amino-2-hydroxypropyl)-4-(4-(3-aminopropyl)piperidin-1-yl)-3-(2H-tetrazol-5-yl)benzene-1,2-disulfonamide] | 1.56 | 1.56 | 1.56 | 0.075 | 0.67 | 0.75 | 0.78 | 1.00 | 0.78 | 0.48 |
| NCCC1CCN(c2ccc(S(=O)(=O)N[C@H](CN)CO)c(S(N)(=O)=O)c2-c2nn[nH]n2)CC1 [Example 188, (R)-N1-(1-amino-3-hydroxypropan-2-yl)-4-(4-(2-aminoethyl)piperidin-1-yl)-3-(2H-tetrazol-5-yl)benzene-1,2-disulfonamide] | 0.78 | 0.78 | 1.56 | 0.13 | 3.68 | 4.85 | 0.78 | 1.00 | 0.78 | 2.86 |
| NC[C@@H](O)CNS(=O)(=O)c1ccc(N2CCN(C(CO)CO)CC2)c(-c2nn[nH]n2)c1S(N)(=O)=O [Example 160, (R)-N1-(3-amino-2-hydroxypropyl)-4-(4-(1,3-dihydroxypropan-2-yl)piperazin-1-yl)-3-(2H-tetrazol-5-yl)benzene-1,2-disulfonamide] | 0.78 | 0.20 | 1.56 | 1.34 | 1.2 | 5.49 | 1.56 | 1.00 | 1.56 | 1.16 |
| NCC(O)C1CCN(c2ccc(S(=O)(=O)NC[C@H](O)CN)c(S(N)(=O)=O)c2-c2nn[nH]n2)CC1 (stereo partly drawn) [Example 132, 4-(4-(2-amino-1-hydroxyethyl)piperidin-1-yl)-N1-((R)-3-amino-2-hydroxypropyl)-3-(2H-tetrazol-5-yl)benzene-1,2-disulfonamide] | 0.39 | 0.78 | 1.56 | 0.19 | 2.49 | 4.28 | 0.78 | 1.00 | 0.78 | 1.34 |
| NCCNS(=O)(=O)C1CCN(c2ccc(S(=O)(=O)NC[C@H](O)CN)c(S(N)(=O)=O)c2-c2nn[nH]n2)CC1 [Example 131, (R)-N1-(3-amino-2-hydroxypropyl)-4-(4-(N-(2-aminoethyl)sulfamoyl)piperidin-1-yl)-3-(2H-tetrazol-5-yl)benzene-1,2-disulfonamide] | 0.39 | 0.78 | 1.56 | 0.11 | 0.87 | 1.05 | 0.78 | 1.00 | 0.78 | 0.79 |
| NCCN1CCN(c2ccc(S(=O)(=O)NC[C@H](O)CN)c(S(N)(=O)=O)c2-c2nn[nH]n2)CC1=O [Example 147, (R)-N1-(3-amino-2-hydroxypropyl)-4-(4-(2-aminoethyl)-3-oxopiperazin-1-yl)-3-(2H-tetrazol-5-yl)benzene-1,2-disulfonamide] | 0.39 | 0.78 | 1.56 | 0.28 | 39.6 | 56.2 | 3.13 | 4.00 | 0.78 | 27 |
| CS(=O)(=O)CCN1CCN(c2ccc(S(=O)(=O)NC[C@H](O)CN)c(S(N)(=O)=O)c2-c2nn[nH]n2)CC1 [Example 117, (R)—N1-(3-amino-2-hydroxypropyl)-4-(4-(2-(methylsulfonyl)ethyl)piperazin-1-yl)-3-(2H-tetrazol-5-yl)benzene-1,2-disulfonamide] | 3.13 | 0.78 | 6.25 | 2.58 | 0.55 | 2.28 | 12.50 | 4.00 | 3.13 | 0.94 |
| NC[C@@H](O)CNS(=O)(=O)c1ccc(N2CCC[C@H](CN)C2)c(-c2nnn[nH]2)c1S(N)(=O)=O [Example 39, N1-((R)-3-amino-2-hydroxypropyl)-4-((R)-3-(aminomethyl)piperidin-1-yl)-3-(1H-tetrazol-5-yl)benzene-1,2-disulfonamide] | 1.56 | 0.78 | 1.56 | 1.71 | 44.6 | 11.6 | 3.13 | 2.00 | 1.56 | 50.4 |
